Experiment: Inhibition of recombinant GGT1 (unknown origin) using GGPP as substrate preincubated for 5 mins followed by protein addition measured over 20 mins by fluorescence assay

Row | IC50 [µM] | SMILES
1 | 22.9 | CSCCc1c(-c2cccnc2)nn(-c2ccc(Cl)c(Cl)c2)c1OCCCNC(=O)[C@H](Cc1ccccc1)NC(C)=O

Experiment: as above
Remark: another data set of the same source

Row | IC50 [µM] | SMILES
2 | 3.1 | COc1ccc(C[C@H](NC(=O)CCCOc2c(CCSC)c(-c3cccnc3)nn2-c2ccc(Cl)c(Cl)c2)C(N)=O)cc1
3 | 9.9 | COc1ccc(C[C@H](NS(C)(=O)=O)C(=O)NCCCOc2c(CCSC)c(-c3cccnc3)nn2-c2ccc(Cl)c(Cl)c2)cc1
4 | 3.3 | CSCCc1c(-c2cccnc2)nn(-c2ccc(Cl)c(Cl)c2)c1OCCCC(=O)N[C@@H](Cc1ccccc1)C(N)=O [N-[(S)-1-carbamoyl-2-phenylethyl]-4-[2-(3,4-di-chlorophenyl)-4-(2-methylsulfanylethyl)-5-pyridin-3-yl-2-H-pyrazol-3-yloxy]butyramide]
5 | 7.8 | CSCCc1c(-c2cccnc2)nn(-c2ccc(Cl)c(Cl)c2)c1OCCCC(=O)N[C@@H](Cc1ccncc1)C(N)=O
6 | 19.7 | CSCCc1c(-c2cccnc2)nn(-c2ccc(Cl)c(Cl)c2)c1OCCCNC(=O)[C@H](Cc1ccc(F)cc1)NS(C)(=O)=O
7 | 34.8 | COc1ccc(C[C@H](NC(C)=O)C(=O)NCCCOc2c(CCSC)c(-c3cccnc3)nn2-c2ccc(Cl)c(Cl)c2)cc1
8 | 2.4 | CSCCc1c(-c2cccnc2)nn(-c2ccc(Cl)c(Cl)c2)c1OCCCC(=O)N[C@@H](Cc1ccc(F)cc1)C(N)=O
9 | 11.6 | CSCCc1c(-c2cccnc2)nn(-c2ccc(Cl)c(Cl)c2)c1OCCCC(=O)N[C@@H](Cc1cccnc1)C(N)=O
10 | > 50 | CSCCc1c(-c2cccnc2)nn(-c2ccc(Cl)c(Cl)c2)c1OCCCNC(=O)[C@H](Cc1cccnc1)NS(C)(=O)=O
11 | > 50 | CSCCc1c(-c2cccnc2)nn(-c2ccc(Cl)c(Cl)c2)c1OCCCNC(=O)[C@H](Cc1cccnc1)NC(C)=O
12 | 31.9 | CSCCc1c(-c2cccnc2)nn(-c2ccc(Cl)c(Cl)c2)c1OCCCNC(=O)[C@H](Cc1ccccc1)NS(C)(=O)=O

Reference: BindingDB's records for doi:10.1016/j.ejmech.2016.09.002 (King Fahd University of Petroleum and Minerals, 2016)
